Laboratory results taken from publication PMC6704710, “Preclinical evaluation of 3D185, a novel potent inhibitor of FGFR1/2/3 and CSF-1R, in FGFR-dependent and macrophage-dominant cancer models” (Journal of Experimental & Clinical Cancer Research : CR, 2019).

Tests used:
[1] = biological target: T1, PRAK(h) (Homo sapiens, UniProt Q8IW41); assay: Eurofins kinase panel; format: biochemical; details: read-out: Inhibition rate (%)
T1 construct: purchased Eurofins (KinaseProfiler)
T1 sequence (Q8IW41 1-473): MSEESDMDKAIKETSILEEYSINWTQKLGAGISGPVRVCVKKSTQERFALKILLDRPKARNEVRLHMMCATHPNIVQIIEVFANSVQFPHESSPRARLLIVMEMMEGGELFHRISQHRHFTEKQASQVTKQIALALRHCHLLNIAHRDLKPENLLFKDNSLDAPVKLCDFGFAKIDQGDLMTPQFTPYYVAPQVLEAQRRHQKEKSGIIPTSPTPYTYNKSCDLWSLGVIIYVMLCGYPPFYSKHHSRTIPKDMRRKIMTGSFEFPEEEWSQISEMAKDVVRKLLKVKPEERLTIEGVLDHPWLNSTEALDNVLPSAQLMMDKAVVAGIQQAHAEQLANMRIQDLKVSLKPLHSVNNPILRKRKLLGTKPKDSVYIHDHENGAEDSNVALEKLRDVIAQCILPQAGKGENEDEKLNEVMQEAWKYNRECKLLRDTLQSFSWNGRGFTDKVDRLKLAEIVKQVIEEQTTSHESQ

[2] = test system: VEGF-induced primary HUVECs; assay: VEGF-induced HUVEC proliferation (CCK-8); format: cell-based; details: Homo sapiens, VEGF 100 ng/mL, 48 h
Experimental: Fig. 1 3D185 is a dual FGFR1/2/3 and CSF-1R inhibitor with high selectivity. a Chemical structure of 3D185. […]. H, A broad kinase profile of 3D185 against 372 protein kinases. […]. Representative data from three independent experiments are shown
(§1) The cancer cell lines indicated in Figure 3 were seeded in 96-well plates at a low density in growth medium. The next day, appropriate controls or the designated concentrations of the compounds were added to each well, and the cells were incubated for 72 h. HUVECs (passage 3) were seeded in 96-well plates in growth medium overnight and transferred to serum-free medium for 24 h. The following day, appropriate controls or the designated concentrations of the compounds were added to each well, and 100 ng/mL growth factor (bFGF or VEGF) was added to the indicated wells. The cells were incubated for 48 h. Finally, cell proliferation was determined using a sulforhodamine B (SRB) assay or a cell counting kit-8 (CCK-8) assay. […] IC50 values for proliferation curves were calculated using a 4-parameter logistic nonlinear regression model with SoftMax Pro Software (Molecular Devices, San Jose, USA).

[3] = test system: NCI-H2444; assay: Cell proliferation assay; format: cell-based; details: Homo sapiens, Fig. 2G
Experimental: as §1

[4] = test system: NCI-H1299; assay: Cell proliferation assay; format: cell-based; details: Homo sapiens, Fig. 2G
Experimental: as §1

[5] = test system: T47D; assay: Cell proliferation assay; format: cell-based; details: Homo sapiens, Fig. 2G
Experimental: as §1

[6] = test system: MDA-MB-453; assay: Cell proliferation assay; format: cell-based; details: Homo sapiens, Fig. 2G
Experimental: as §1

[7] = test system: MCF-7; assay: Cell proliferation assay; format: cell-based; details: Homo sapiens, MCF7; Fig. 2G
Experimental: as §1

[8] = test system: HCC366; assay: Cell proliferation assay; format: cell-based; details: Homo sapiens, Fig. 2G
Experimental: as §1

[9] = test system: MKN28; assay: Cell proliferation assay; format: cell-based; details: Homo sapiens, MKN-28; Fig. 2G
Experimental: as §1

[10] = test system: HCC1954; assay: Cell proliferation assay; format: cell-based; details: Homo sapiens, Fig. 2G
Experimental: as §1

[11] = test system: EBC-1; assay: Cell proliferation assay; format: cell-based; details: Homo sapiens, Fig. 2G
Experimental: as §1

[12] = test system: SGC-7901; assay: Cell proliferation assay; format: cell-based; details: Homo sapiens, Fig. 2G
Experimental: as §1

[13] = test system: A375; assay: Cell proliferation assay; format: cell-based; details: Homo sapiens, A-375; Fig. 2G
Experimental: as §1

[14] = test system: SK-BR-3; assay: Cell proliferation assay; format: cell-based; details: Homo sapiens, Fig. 2G
Experimental: as §1

[15] = test system: CAL51; assay: Cell proliferation assay; format: cell-based; details: Homo sapiens, CAL-51; Fig. 2G
Experimental: as §1

[16] = test system: BGC-823; assay: Cell proliferation assay; format: cell-based; details: Homo sapiens, Fig. 2G
Experimental: as §1

[17] = test system: HCC78; assay: Cell proliferation assay; format: cell-based; details: Homo sapiens, Fig. 2G
Experimental: as §1

[18] = test system: MKN1; assay: Cell proliferation assay; format: cell-based; details: Homo sapiens, MKN-1; Fig. 2G
Experimental: as §1

[19] = biological target: T2, Lyn(h) (Homo sapiens, UniProt P07948); assay: Eurofins kinase panel; format: biochemical; details: read-out: Inhibition rate (%)
T2 construct: purchased Eurofins (KinaseProfiler)

[20] = biological target: T3, ICK(h) (Homo sapiens, UniProt Q9UPZ9); assay: Eurofins kinase panel; format: biochemical; details: read-out: Inhibition rate (%)
T3 construct: purchased Eurofins (KinaseProfiler)
T3 sequence (Q9UPZ9 1-632): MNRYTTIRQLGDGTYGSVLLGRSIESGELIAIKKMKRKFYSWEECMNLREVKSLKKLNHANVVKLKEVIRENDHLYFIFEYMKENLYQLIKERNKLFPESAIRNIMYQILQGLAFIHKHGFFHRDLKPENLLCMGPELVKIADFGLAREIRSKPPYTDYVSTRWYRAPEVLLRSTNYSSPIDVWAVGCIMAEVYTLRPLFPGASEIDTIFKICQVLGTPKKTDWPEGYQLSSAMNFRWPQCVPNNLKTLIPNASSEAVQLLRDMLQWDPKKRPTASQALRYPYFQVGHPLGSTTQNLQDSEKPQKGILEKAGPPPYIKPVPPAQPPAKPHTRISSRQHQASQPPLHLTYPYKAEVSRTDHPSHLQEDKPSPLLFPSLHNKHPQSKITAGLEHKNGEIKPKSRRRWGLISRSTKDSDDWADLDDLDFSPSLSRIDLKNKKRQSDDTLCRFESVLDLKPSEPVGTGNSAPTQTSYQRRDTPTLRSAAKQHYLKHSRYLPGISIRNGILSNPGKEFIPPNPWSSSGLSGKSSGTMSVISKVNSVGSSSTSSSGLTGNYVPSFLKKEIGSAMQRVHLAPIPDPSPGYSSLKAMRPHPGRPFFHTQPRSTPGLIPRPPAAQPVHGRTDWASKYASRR

[21] = biological target: T4, RIPK2(h) (Homo sapiens, UniProt O43353); assay: Eurofins kinase panel; format: biochemical; details: read-out: Inhibition rate (%)
T4 construct: purchased Eurofins (KinaseProfiler)

[22] = biological target: FGFR2(N549H)(h) (Homo sapiens, UniProt P21802, N549H); assay: Eurofins kinase panel; format: biochemical
Chain of FGFR2(N549H)(h) (P21802 22-821 N549H): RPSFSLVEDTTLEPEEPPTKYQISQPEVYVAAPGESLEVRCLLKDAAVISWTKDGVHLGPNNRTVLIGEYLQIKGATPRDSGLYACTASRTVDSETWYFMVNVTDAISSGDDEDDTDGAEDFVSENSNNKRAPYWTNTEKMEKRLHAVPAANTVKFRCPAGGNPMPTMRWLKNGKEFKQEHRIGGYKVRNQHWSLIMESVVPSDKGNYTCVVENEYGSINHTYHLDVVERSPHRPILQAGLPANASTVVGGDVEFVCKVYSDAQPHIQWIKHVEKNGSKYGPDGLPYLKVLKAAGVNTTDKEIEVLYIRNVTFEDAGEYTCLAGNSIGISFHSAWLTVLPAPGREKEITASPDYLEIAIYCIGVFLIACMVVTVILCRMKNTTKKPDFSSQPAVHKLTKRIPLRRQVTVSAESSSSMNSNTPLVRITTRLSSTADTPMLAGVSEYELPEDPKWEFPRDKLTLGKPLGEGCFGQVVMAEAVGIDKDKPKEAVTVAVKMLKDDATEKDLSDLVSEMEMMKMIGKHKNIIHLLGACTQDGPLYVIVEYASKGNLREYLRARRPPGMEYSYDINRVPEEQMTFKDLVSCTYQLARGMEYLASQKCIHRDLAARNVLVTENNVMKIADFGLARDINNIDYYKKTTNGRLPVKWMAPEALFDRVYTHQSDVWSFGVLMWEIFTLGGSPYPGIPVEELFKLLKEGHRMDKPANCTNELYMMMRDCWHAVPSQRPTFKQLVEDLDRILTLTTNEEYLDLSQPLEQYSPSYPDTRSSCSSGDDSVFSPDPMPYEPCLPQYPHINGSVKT

T2 sequence (P07948 whole entry): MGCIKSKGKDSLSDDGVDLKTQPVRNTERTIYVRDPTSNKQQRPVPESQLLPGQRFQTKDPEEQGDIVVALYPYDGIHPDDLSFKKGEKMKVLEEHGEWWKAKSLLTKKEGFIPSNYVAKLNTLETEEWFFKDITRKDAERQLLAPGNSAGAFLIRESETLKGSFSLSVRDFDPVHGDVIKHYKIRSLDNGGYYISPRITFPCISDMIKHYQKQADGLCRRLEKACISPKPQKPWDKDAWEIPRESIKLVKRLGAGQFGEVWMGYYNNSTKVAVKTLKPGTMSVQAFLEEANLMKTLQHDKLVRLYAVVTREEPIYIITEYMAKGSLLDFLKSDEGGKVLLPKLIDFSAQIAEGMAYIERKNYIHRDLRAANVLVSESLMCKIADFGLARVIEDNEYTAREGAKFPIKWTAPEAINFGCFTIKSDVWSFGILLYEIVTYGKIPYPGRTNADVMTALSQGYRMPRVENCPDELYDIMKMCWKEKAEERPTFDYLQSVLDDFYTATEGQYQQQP
T4 sequence (O43353 whole entry): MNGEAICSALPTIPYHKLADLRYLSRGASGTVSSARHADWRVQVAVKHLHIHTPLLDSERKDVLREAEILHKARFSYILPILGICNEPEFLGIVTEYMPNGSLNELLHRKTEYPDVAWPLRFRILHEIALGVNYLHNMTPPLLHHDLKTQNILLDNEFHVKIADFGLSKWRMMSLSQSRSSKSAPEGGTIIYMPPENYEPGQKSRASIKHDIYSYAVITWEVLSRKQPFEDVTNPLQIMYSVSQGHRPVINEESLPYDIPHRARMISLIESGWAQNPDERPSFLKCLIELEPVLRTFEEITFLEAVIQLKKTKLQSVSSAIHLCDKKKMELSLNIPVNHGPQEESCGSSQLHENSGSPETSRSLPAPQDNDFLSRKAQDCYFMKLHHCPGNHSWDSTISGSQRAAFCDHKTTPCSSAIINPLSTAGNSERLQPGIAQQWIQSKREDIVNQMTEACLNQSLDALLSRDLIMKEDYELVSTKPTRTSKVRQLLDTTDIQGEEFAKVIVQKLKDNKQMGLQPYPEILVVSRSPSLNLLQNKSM

Structure (SMILES): COc1cc(OC)c(Cl)c(-c2ccc3c(NC(=O)c4ccc(N5CCNC(C)(C)C5)cc4)n[nH]c3n2)c1Cl [3D185]
- inhibition at 0.01 µM ([1]; 10 nM): -18%
- inhibition at 0.1 µM ([1]; 100 nM): -24%
- inhibition at 1 µM ([1]; 1000 nM): -10%
- IC50 [2]: 0.0881 µM
- IC50 [3]: > 1 µM
- IC50 [4]: > 1 µM
- IC50 [5]: > 1 µM
- IC50 [6]: > 1 µM
- IC50 [7]: > 1 µM
- IC50 [8]: > 1 µM
- IC50 [9]: > 1 µM
- IC50 [10]: > 1 µM
- IC50 [11]: > 1 µM
- IC50 [12]: > 1 µM
- IC50 [13]: > 1 µM
- IC50 [14]: > 1 µM
- IC50 [15]: > 1 µM
- IC50 [16]: > 1 µM
- IC50 [17]: > 1 µM
- IC50 [18]: > 1 µM
- inhibition at 0.01 µM ([19]; 10 nM): 8%
- inhibition at 0.1 µM ([19]; 100 nM): 81%
- inhibition at 1 µM ([19]; 1000 nM): 98%
- inhibition at 0.01 µM ([20]; 10 nM): -10%
- inhibition at 0.1 µM ([20]; 100 nM): -5%
- inhibition at 1 µM ([20]; 1000 nM): 4%
- inhibition at 0.01 µM ([21]; 10 nM): 2%
- inhibition at 0.1 µM ([21]; 100 nM): 6%
- inhibition at 1 µM ([21]; 1000 nM): 3%
- IC50 ([22]; estimated from 372-kinase panel): < 0.01 µM
- inhibition at 0.01 µM ([22]; read-out: Inhibition rate (%)): 96%
- inhibition at 0.1 µM ([22]; read-out: Inhibition rate (%)): 98%
- inhibition at 1 µM ([22]; read-out: Inhibition rate (%)): 100%
